The target in one assay is T1, eIF2B (Mus musculus, UniProt Q61749+Q99LD9).
T1 construct: gene Eif2b2; native endogenous complex in lysate of mouse embryonic fibroblasts; decamer of five subunits; with Translation initiation factor eIF2B subunit alpha; Translation initiation factor eIF2B subunit gamma; Translation initiation factor eIF2B subunit epsilon
The experiment in a line: GEF assay, Bodipy-FL-GDP release from eIF2, fluorescence. Type of assay: biochemical. The conditions noted are these: activator; MEF lysate 0.1 mg/mL; 25 nM Bodipy-FL-GDP-loaded eIF2; 3 nM phospho-eIF2; 0.1 mM GDP; 25°C; homozygous R191H MEF lysate.

Another assay concerns the target T2, 5-HT transporter (h) (Homo sapiens, UniProt P31645).
T2 construct: gene SLC6A4
The experiment in a line: biochemical. Set-up: CEREP panel radioligand binding displacement, % inhibition of control specific binding by 10 uM 2BAct. The note with it: Type=Antagonist radioligand; read-out: % inhibition of Control specific binding. The method, then:
(§1) Supplementary file elife-42940-supp1.xlsx: Supplementary file 1. (A) Binding of 2BAct at 10 μM to the CEREP panel of receptors/enzymes/ion channels. Compound binding was calculated as a % inhibition of the binding of a radioactively labeled ligand specific for each target. Results showing inhibition or stimulation higher than 50% are considered to represent significant effects of the test compound. (B) Pharmacokinetic data from 2BAct dosing in mice. (C) GO Biological Processes identified by enrichment analysis of RNA-seq data. (D) List of genes used for enrichment analysis of scRNA-seq data.

Another assay concerns the target T3, 5-HT1B (Rattus norvegicus, UniProt P28564).
T3 construct: gene Htr1b
The experiment in a line: biochemical. Also noted: CEREP panel radioligand binding displacement, % inhibition of control specific binding by 10 uM 2BAct. The note with it: Type=Antagonist radioligand; read-out: % inhibition of Control specific binding. The protocol: as §1

Another assay deals with T4, 5-HT2A (h) (Homo sapiens, UniProt P28223).
T4 construct: gene HTR2A
The experiment in a line: biochemical. Set-up: CEREP panel radioligand binding displacement, % inhibition of control specific binding by 10 uM 2BAct. The note with it: Type=Antagonist radioligand; read-out: % inhibition of Control specific binding. The protocol:
as §1

A further assay addresses T5, 5-HT3 (h) (Homo sapiens, UniProt P46098).
T5 construct: gene HTR3A
The experiment in a line: biochemical. The note with it: Type=Antagonist radioligand; read-out: % inhibition of Control specific binding. Set-up: CEREP panel radioligand binding displacement, % inhibition of control specific binding by 10 uM 2BAct. The method, then: as §1

A further assay deals with T6, 5-HT4E (h) (Homo sapiens, UniProt Q13639).
T6 construct: gene HTR4; isoform 4E
Put plainly: biochemical. Also noted: CEREP panel radioligand binding displacement, % inhibition of control specific binding by 10 uM 2BAct. The conditions noted are these: Type=Antagonist radioligand; read-out: % inhibition of Control specific binding. The method, then:
as §1

For the next assay, the target named is T7, A1 (h) (Homo sapiens, UniProt P30542).
T7 construct: gene ADORA1
The experiment in a line: biochemical. Set-up: CEREP panel radioligand binding displacement, % inhibition of control specific binding by 10 uM 2BAct. The conditions noted are these: Type=Antagonist radioligand; read-out: % inhibition of Control specific binding. The method, then: as §1

The target in the next assay is T8, AT1 (h) (Homo sapiens, UniProt P30556).
T8 construct: gene AGTR1
The experiment in a line: biochemical. Set-up: CEREP panel radioligand binding displacement, % inhibition of control specific binding by 10 uM 2BAct. The conditions noted are these: Type=Antagonist radioligand; read-out: % inhibition of Control specific binding. The protocol: as §1

For the next assay, the target named is T9, AT2 (h) (Homo sapiens, UniProt P50052).
T9 construct: gene AGTR2
Put plainly: biochemical. Set-up: CEREP panel radioligand binding displacement, % inhibition of control specific binding by 10 uM 2BAct. The note with it: Type=Agonist radioligand; read-out: % inhibition of Control specific binding. The protocol: as §1

In another assay the target is T10, B2 (h) (Homo sapiens, UniProt P30411).
T10 construct: gene BDKRB2
The experiment in a line: biochemical. The conditions noted are these: Type=Agonist radioligand; read-out: % inhibition of Control specific binding. Also noted: CEREP panel radioligand binding displacement, % inhibition of control specific binding by 10 uM 2BAct. The method, then: as §1

A further assay addresses T11, CB1 (h) (Homo sapiens, UniProt P21554).
T11 construct: gene CNR1
The experiment in a line: biochemical. The conditions noted are these: Type=Agonist radioligand; read-out: % inhibition of Control specific binding. Also noted: CEREP panel radioligand binding displacement, % inhibition of control specific binding by 10 uM 2BAct. The method, then: as §1

A further assay deals with T12, H1 (h) (Homo sapiens, UniProt P35367).
T12 construct: gene HRH1
The experiment in a line: biochemical. Set-up: CEREP panel radioligand binding displacement, % inhibition of control specific binding by 10 uM 2BAct. The note with it: Type=Antagonist radioligand; read-out: % inhibition of Control specific binding. The protocol: as §1

The target in another assay is T13, M1 (h) (Homo sapiens, UniProt P11229).
T13 construct: gene CHRM1
The experiment in a line: biochemical. The note with it: Type=Antagonist radioligand; read-out: % inhibition of Control specific binding. Set-up: CEREP panel radioligand binding displacement, % inhibition of control specific binding by 10 uM 2BAct. The protocol: as §1

For another assay, the target named is T14, M4 (h) (Homo sapiens, UniProt P08173).
T14 construct: gene CHRM4
Put plainly: biochemical. Also noted: CEREP panel radioligand binding displacement, % inhibition of control specific binding by 10 uM 2BAct. The note with it: Type=Antagonist radioligand; read-out: % inhibition of Control specific binding. The protocol:
as §1

In a further assay the target is T15, MAO-A (Rattus norvegicus, UniProt P21396).
T15 construct: gene Maoa
Put plainly: biochemical. The note with it: Type=Antagonist radioligand; read-out: % inhibition of Control specific binding. Set-up: CEREP panel radioligand binding displacement, % inhibition of control specific binding by 10 uM 2BAct. The protocol:
as §1

Another assay addresses T16, NK1 (h) (Homo sapiens, UniProt P25103).
T16 construct: gene TACR1
Put plainly: biochemical. Also noted: CEREP panel radioligand binding displacement, % inhibition of control specific binding by 10 uM 2BAct. The note with it: Type=Agonist radioligand; read-out: % inhibition of Control specific binding. The protocol:
as §1

A further assay deals with PPARg (h) (Homo sapiens, UniProt P37231). The experiment in a line: biochemical. Set-up: CEREP panel radioligand binding displacement, % inhibition of control specific binding by 10 uM 2BAct. The note with it: Type=Agonist radioligand; read-out: % inhibition of Control specific binding. The method, then: as §1
A further assay deals with T17, V1a (h) (Homo sapiens, UniProt P37288).
T17 construct: gene AVPR1A
The experiment in a line: biochemical. The note with it: Type=Agonist radioligand; read-out: % inhibition of Control specific binding. Also noted: CEREP panel radioligand binding displacement, % inhibition of control specific binding by 10 uM 2BAct. The protocol:
as §1

The target in the next assay is T18, a2B (h) (Homo sapiens, UniProt P18089).
T18 construct: gene ADRA2B
The experiment in a line: biochemical. Also noted: CEREP panel radioligand binding displacement, % inhibition of control specific binding by 10 uM 2BAct. The note with it: Type=Antagonist radioligand; read-out: % inhibition of Control specific binding. The protocol:
as §1

In the next assay the target is T19, motilin (h) (Homo sapiens, UniProt O43193).
T19 construct: gene MLNR
The experiment in a line: biochemical. The note with it: Type=Agonist radioligand; read-out: % inhibition of Control specific binding. Also noted: CEREP panel radioligand binding displacement, % inhibition of control specific binding by 10 uM 2BAct. The protocol:
as §1

The target in assay [1] is T20, norepinephrine transporter (h) (Homo sapiens, UniProt P23975).
T20 construct: gene SLC6A2
Put plainly: biochemical. Set-up: CEREP panel radioligand binding displacement, % inhibition of control specific binding by 10 uM 2BAct. The conditions noted are these: Type=Antagonist radioligand; read-out: % inhibition of Control specific binding. The method, then:
as §1

The results in this text go back to PMC6326728, “eIF2B activator prevents neurological defects caused by a chronic integrated stress response” (eLife, 2019).

T10 sequence (P30411 whole entry): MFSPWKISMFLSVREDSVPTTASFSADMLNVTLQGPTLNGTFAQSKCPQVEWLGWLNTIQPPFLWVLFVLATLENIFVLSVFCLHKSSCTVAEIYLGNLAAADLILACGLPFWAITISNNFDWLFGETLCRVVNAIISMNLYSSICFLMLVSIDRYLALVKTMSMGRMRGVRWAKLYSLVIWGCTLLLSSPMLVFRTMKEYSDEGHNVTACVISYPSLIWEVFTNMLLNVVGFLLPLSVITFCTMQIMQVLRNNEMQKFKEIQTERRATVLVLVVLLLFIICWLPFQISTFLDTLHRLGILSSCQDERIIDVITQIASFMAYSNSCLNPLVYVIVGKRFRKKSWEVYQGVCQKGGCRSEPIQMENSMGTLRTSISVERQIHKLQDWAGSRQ
T11 sequence (P21554 whole entry): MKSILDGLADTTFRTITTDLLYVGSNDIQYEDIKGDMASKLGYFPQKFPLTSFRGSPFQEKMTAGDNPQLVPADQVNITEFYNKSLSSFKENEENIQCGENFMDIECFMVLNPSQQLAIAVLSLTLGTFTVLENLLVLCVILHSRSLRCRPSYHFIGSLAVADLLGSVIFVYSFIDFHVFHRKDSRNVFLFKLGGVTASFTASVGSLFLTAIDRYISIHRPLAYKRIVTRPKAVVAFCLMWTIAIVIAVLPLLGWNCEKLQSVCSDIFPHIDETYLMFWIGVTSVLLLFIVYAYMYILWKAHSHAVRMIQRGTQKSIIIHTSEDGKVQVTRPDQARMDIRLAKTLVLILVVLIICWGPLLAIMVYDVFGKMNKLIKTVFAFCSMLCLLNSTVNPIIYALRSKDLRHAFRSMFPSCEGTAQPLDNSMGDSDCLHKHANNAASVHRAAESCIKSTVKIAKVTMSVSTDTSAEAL
T6 sequence (Q13639 whole entry, canonical isoform): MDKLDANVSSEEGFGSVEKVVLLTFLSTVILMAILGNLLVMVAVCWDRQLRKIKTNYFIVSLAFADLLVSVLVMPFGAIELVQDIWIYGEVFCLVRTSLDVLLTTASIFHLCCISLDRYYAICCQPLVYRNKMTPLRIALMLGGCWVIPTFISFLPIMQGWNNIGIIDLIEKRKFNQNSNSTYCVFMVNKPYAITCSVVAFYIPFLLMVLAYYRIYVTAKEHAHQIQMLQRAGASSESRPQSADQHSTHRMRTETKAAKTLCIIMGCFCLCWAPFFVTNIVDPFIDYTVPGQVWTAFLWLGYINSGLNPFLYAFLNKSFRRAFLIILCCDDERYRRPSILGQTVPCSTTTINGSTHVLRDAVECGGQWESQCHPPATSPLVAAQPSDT
T2 sequence (P31645 whole entry): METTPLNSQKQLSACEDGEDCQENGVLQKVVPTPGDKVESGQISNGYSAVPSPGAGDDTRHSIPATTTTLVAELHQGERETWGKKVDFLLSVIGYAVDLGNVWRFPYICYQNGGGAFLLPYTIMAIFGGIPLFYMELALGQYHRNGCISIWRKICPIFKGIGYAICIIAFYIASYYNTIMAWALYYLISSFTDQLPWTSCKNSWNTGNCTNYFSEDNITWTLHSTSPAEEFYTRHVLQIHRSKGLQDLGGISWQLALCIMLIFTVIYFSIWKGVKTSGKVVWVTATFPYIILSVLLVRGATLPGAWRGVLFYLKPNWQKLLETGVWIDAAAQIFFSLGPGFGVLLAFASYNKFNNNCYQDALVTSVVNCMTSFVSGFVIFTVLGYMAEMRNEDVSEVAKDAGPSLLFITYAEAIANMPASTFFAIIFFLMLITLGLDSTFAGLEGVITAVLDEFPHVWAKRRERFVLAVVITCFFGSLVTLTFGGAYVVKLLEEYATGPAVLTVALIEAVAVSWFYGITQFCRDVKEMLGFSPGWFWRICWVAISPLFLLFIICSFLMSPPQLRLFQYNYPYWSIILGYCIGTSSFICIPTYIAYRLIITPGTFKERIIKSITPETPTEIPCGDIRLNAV
T7 sequence (P30542 whole entry): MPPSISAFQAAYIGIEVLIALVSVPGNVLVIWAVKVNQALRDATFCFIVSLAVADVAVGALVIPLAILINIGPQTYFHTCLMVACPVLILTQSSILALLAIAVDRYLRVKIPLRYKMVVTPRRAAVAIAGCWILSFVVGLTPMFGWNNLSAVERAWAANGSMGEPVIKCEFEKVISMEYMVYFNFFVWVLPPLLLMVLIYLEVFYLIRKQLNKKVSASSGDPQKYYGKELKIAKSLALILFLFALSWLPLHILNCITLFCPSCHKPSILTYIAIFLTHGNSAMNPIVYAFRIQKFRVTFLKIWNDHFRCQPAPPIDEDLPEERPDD
T8 sequence (P30556 whole entry): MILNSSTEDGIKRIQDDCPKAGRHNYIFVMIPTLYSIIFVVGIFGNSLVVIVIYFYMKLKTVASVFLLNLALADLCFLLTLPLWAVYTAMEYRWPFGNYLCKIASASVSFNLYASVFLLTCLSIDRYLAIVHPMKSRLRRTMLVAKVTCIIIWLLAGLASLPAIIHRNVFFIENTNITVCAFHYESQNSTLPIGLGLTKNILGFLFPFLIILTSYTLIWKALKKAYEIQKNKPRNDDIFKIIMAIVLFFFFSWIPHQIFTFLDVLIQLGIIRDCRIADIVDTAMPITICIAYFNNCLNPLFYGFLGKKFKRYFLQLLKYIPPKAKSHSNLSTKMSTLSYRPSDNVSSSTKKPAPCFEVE
T12 sequence (P35367 whole entry): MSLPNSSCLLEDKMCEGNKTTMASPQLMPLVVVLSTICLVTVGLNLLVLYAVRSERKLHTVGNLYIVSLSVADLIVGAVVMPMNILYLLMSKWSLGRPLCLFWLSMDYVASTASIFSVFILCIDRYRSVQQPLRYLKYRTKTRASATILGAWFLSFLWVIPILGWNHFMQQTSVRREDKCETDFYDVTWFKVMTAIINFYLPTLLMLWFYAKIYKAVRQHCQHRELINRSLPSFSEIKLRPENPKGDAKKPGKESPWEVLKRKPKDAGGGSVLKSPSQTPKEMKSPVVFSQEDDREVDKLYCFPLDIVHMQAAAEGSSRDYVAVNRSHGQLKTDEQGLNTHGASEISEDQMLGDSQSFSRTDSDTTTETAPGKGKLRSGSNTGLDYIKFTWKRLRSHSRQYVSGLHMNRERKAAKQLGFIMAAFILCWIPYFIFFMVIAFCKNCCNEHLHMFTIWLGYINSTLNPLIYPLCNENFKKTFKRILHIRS
T15 sequence (P21396 whole entry): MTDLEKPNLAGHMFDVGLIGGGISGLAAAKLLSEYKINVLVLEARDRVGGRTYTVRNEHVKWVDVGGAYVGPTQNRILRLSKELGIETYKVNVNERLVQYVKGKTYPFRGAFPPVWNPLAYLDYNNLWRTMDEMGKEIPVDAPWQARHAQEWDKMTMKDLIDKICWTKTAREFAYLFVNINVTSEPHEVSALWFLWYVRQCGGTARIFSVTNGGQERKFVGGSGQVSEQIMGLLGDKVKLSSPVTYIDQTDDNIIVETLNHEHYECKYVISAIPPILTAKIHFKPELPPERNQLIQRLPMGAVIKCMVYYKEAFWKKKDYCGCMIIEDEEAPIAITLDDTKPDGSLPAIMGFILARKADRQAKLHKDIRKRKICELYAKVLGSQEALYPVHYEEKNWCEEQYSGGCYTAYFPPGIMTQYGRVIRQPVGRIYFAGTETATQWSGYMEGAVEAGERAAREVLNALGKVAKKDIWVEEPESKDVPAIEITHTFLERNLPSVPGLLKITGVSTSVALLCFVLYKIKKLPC
Chain of PPARg (h) (P37231 whole entry): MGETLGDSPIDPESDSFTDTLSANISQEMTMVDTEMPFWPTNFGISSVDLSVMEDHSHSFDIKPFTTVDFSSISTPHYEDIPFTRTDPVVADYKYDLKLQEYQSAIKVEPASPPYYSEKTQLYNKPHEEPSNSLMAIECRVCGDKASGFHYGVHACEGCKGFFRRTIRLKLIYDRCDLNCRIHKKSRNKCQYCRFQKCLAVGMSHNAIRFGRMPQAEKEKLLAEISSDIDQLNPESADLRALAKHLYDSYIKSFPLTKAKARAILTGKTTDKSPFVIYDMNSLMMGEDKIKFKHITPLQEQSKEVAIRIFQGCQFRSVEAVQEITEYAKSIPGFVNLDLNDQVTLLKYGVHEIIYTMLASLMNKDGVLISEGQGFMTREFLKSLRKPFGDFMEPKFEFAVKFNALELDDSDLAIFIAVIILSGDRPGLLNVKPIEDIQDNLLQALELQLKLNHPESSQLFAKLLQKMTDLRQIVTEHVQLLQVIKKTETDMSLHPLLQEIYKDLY
T17 sequence (P37288 whole entry): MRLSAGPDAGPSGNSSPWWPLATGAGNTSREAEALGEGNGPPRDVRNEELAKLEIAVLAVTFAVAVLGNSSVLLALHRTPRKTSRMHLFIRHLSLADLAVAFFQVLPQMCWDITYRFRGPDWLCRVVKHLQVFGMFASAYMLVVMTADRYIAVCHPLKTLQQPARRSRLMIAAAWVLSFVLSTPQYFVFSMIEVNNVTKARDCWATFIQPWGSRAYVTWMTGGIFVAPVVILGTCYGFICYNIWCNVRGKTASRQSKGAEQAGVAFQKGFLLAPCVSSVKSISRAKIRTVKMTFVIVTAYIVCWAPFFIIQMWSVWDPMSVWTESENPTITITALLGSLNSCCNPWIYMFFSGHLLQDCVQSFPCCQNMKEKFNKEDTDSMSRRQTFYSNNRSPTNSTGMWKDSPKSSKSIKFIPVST
T16 sequence (P25103 whole entry): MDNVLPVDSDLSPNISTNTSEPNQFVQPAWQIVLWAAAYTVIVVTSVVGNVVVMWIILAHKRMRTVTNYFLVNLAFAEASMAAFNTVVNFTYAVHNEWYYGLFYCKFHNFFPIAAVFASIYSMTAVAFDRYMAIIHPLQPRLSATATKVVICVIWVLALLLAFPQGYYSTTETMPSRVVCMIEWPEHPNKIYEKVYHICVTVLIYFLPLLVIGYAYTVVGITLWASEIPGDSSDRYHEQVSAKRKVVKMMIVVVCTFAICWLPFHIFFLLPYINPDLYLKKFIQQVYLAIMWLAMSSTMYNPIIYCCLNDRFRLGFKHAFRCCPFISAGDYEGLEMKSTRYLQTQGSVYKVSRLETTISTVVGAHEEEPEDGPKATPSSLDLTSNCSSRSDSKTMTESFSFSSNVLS

For the compound `O=C(COc1ccc(Cl)c(F)c1)NC12CC(NC(=O)c3cnc(C(F)F)cn3)(C1)C2` [2BAct], at eIF2B, it took 7.3 nM to reach a half-maximal effect (EC50). Further, the inhibition at 10 µM is 7.9% at 5-HT transporter (h); -8.8% at 5-HT1B; 10.8% on 5-HT2A (h); 9.2% on 5-HT3 (h); 8.2% at 5-HT4E (h); 2.1% at A1 (h). For the same compound, the inhibition at 10 µM at AT1 (h) stood at 13.2%; at AT2 (h) it was 0.2%; at B2 (h), 8.7%; on CB1 (h), 8.3%; at H1 (h), 0.2%; at M1 (h), 2.6%. Moreover, the inhibition at 10 µM on M4 (h) is 11%; at MAO-A, 10.2%; on NK1 (h), 29.1%; on PPARg (h) it was 19%; on V1a (h) it was 6.4%; on a2B (h), 12.2%. Also, the inhibition at 10 µM was -10.8% at motilin (h) and 61% in assay [1].

In general, EC50 refers to the concentration needed to bring the measured effect to its halfway point. Low readings indicate a more potent agent, high ones a less potent agent. The inhibition is the drop in the measured response relative to a control, in per cent.
